From patent US20120029085A1, “STABILIZATION OF QUINOL COMPOSITION SUCH AS CATECHOLAMINE DRUGS” (priority 2010, published 2012)

Experiments:
[1] = cited from earlier work
[2] = Percent protonated (RNH+) and unprotonated (RN) amine form of local anesthetics as a function of pH; format: physicochemical; conditions: for % RNH(+) at pH 5.0: pH 5.0, protonated form; for % RN at pH 5.0: pH 5.0, unprotonated form; for % RNH(+) at pH 6.5: pH 6.5, protonated form; for % RN at pH 6.5: pH 6.5, unprotonated form; for % RNH(+) at pH 7.4: pH 7.4, protonated form; for % RN at pH 7.4: pH 7.4, unprotonated form
From the text: According to the Henderson-Hasselbalch equation:
pH=pKa+log([A^−]/[HA]) (I)

[3] = amine group of the local anesthetic; cited from earlier work
[4] = cystine/cysteine redox couple; cited from earlier work

Row | SMILES | % RNH(+) at pH 5.0 [2] | % RN at pH 5.0 [2] | % RNH(+) at pH 6.5 [2] | % RN at pH 6.5 [2] | % RNH(+) at pH 7.4 [2] | % RN at pH 7.4 [2] | other results
1 | NC(=O)CN(CC(=O)O)CC(=O)O [ADA] |  |  |  |  |  |  | pKa ([1]; Table 3, buffer): 6.60
2 | CCCNC(C)C(=O)Nc1c(C)csc1C(=O)OC (stereo not drawn) [Articaine] | 99.84% | 0.16% | 95.23% | 4.77% | 71.53% | 28.47% | 
3 | O=S(=O)(O)CCN(CCO)CCO [BES] |  |  |  |  |  |  | pKa ([1]; Table 3, buffer): 7.09
4 | CCOC(=O)c1ccc(N)cc1 [Benzocaine] | 0.99% | 99.01% | 0.03% | 99.97% | 0.00% | 100.00% | pKa (amine) [3]: 3
5 | OCC(CO)(CO)NCCCNC(CO)(CO)CO [Bis-Tris Propane] |  |  |  |  |  |  | pKa1 ([1]; Table 3, buffer, first dissociation): 6.80
6 | CCCCN1CCCCC1C(=O)Nc1c(C)cccc1C (stereo not drawn) [Bupivacaine] | 99.92% | 0.08% | 97.55% | 2.45% | 83.37% | 16.63% | 
7 | CCN(CC)CCOC(=O)c1ccc(N)cc1Cl [Chloroprocaine] | 99.98% | 0.02% | 99.37% | 0.63% | 95.23% | 4.77% | pKa (amine) [3]: 8.7
8 | CCCCOc1cc(C(=O)NCCN(CC)CC)c2ccccc2n1 [Dibucaine] | 99.98% | 0.02% | 99.50% | 0.50% | 96.17% | 3.83% | pKa (amine) [3]: 8.8
9 | CCCN(CC)C(CC)C(=O)Nc1c(C)cccc1C (stereo not drawn) [Etidocaine] | 99.80% | 0.20% | 94.06% | 5.94% | 66.61% | 33.39% | 
10 | CCN(CC)CC(=O)Nc1c(C)cccc1C [Lidocaine] | 99.87% | 0.13% | 96.17% | 3.83% | 75.97% | 24.03% | 
11 | O=S(=O)(O)CCCCN1CCOCC1 [MOBS] |  |  |  |  |  |  | pKa ([1]; Table 3, buffer): 7.60
12 | O=C(O)CC(O)C(=O)O (stereo not drawn) [Malate] |  |  |  |  |  |  | pKa2 ([1]; Table 3, buffer, second dissociation): 5.13
13 | Cc1cccc(C)c1NC(=O)C1CCCCN1C (stereo not drawn) [Mepivacaine] | 99.75% | 0.25% | 92.64% | 7.36% | 61.31% | 38.69% | 
14 | CCCNC(C)C(=O)Nc1ccccc1C (stereo not drawn) [Prilocaine] | 99.87% | 0.13% | 96.17% | 3.83% | 75.97% | 24.03% | 
15 | CCN(CC)CCOC(=O)c1ccc(N)cc1 [Procaine] | 99.99% | 0.01% | 99.60% | 0.40% | 96.93% | 3.07% | 
16 | CCCN1CCCC[C@H]1C(=O)Nc1c(C)cccc1C [Ropivacaine] | 99.92% | 0.08% | 97.55% | 2.45% | 83.37% | 16.63% | 
17 | O=S(=O)(O)CCNC(CO)(CO)CO [TES] |  |  |  |  |  |  | pKa ([1]; Table 3, buffer): 7.50
18 | CCCCNc1ccc(C(=O)OCCN(C)C)cc1 [Tetracaine] | 99.94% | 0.06% | 98.04% | 1.96% | 86.32% | 13.68% | 
19 | O=C(O)CNC(CO)(CO)CO [Tricine] |  |  |  |  |  |  | pKa ([1]; Table 3, buffer): 8.05
20 | N[C@@H](CS)C(=O)O [cysteine] |  |  |  |  |  |  | standard reduction potential E° [4]: −0.34 V
21 | CCC(CC)(C(=O)O)C(=O)O [diethylmalonic acid] |  |  |  |  |  |  | pKa (value in parentheses after the buffer name) ([1]; text list of pH buffers, b28): 7.2
